# Assay results taken from patent US20060135569A1, “Use of benzisoselenazolone compounds against ischemic myocardial damage” (priority 2002, published 2006).
# Marks after values point to notes of the source that are not given here.
# Legend:
# TA97; TA98; TA100; TA102 = experiment: Ames (mutagenesis) test, overall result in 4 strains; format: cell-based; settings: 0.5, 5, 50 and 500 μg/dish
# Protocol: (§1) To assess the mutagenic effects of 5 compounds (IMM-004; IMM-065; IMM-127; IMM-128; IMM-313), the Ames test was performed in 4 strains (TA97; TA98; TA100; TA102). The experiment was conducted with compounds at 4 concentration levels (0.5, 5, 50 and 500 μg/dish). […]
# TA97 = experiment: Ames test, strain TA97; format: cell-based
# Protocol: as §1
# TA98 = experiment: Ames test, strain TA98; format: cell-based
# Protocol: as §1
# [1] = tested on: arrhythmia caused by ischemia/reperfusion insults in anaesthetic rats; experiment: Ischemia/reperfusion arrhythmia in anaesthetic rats, intravenous injection; format: in vivo, rat
# From the text: (1) Protective Effects of the Tested Compounds on Myocardial Insults in Rats after Intravenously Injection
# Arrhythmic potency induced by myocardial insults was used to assess the potential protective effect of the compounds.
# TA102 = experiment: Ames test, strain TA102; format: cell-based
# Protocol: as §1
# TA100 = experiment: Ames test, strain TA100; format: cell-based
# Protocol: as §1
# Na^+/Ca^2+ exchanger = target: T1, Na^+/Ca^2+ exchanger (Cavia porcellus, UniProt P48766); experiment: Na^+/Ca^2+ exchange current (INa—Ca), whole-cell patch clamp, intracellular Na^+ overload cell model; format: cell-based, guinea pig
# T1 construct: endogenous in cells; host or cells: freshly isolated guinea pig ventricular myocytes
# From the text: 1. Establishment of Assaying Method for Biphasical Current Detection in Na^+/Ca^2+ Exchange System
# Since the reverse mode of Na^+/Ca^2+ exchange process is one of the main mechanisms involving in ischemia/reperfusion insult, it is of great importance to establish cell model represented reverse mode Na^+/Ca^2+ exchange process for the development of drugs against ischemic injury. Therefore, we successfully established cell model of reverse mode Na^+/Ca^2+ exchange system by intracellular Na^+ dialysis technique, and recorded Na^+/Ca^2+ exchange currents by patch clamp experiment.
# Internal solution contained certain concentration of NaCl was filled to the microcatheter, and ion exchange process between the cellular and internal solutions was conducted after whole cell currents were recorded by patch clamp. Na^+ contained in the internal solution was dialyzed into the cell; result in the high intracellular Na^+ concentration. After that, the cell was champed at a holding potential of −40 mV, then depolarized to +60 mV and followed by a conversely declining ramp stimuli at a speed of 80 mV·s^−1 and 2 s conditioning pulse, then repolarized to −100 mV with a frequency of 0.05 Hz. Under the stimulation protocol, current from outward to the inward direction was recorded by perfusing modified biphasical Tyrode solution (in which the outward and inward currents can be recorded simultaneously) with the addition of 1 mmol·L^−1 of BaCl2 and 2 mmol·L^−1 of CsCl to block K^+ channels, 1 μmol·L^−1 of verapamil to block L-type Ca^2+ channels, and 20 μmol·L^−1 of ouabain to block Na^+/K^+ ATPase, and 20 mmol·L^−1 of TEA to block potassium channels. The recorded inward currents were presented in a linear manner owing to the blockade of other time-dependent currents. With the increase of intracellular Na^+ level and prolongation of time, the reverse mode of Na^+/Ca^2+ exchange process was activated. […] Under such experimental conditioning, the maximum reverse mode current was recorded 3 min after cell crushed. No significant “run-down” was observed within the record period of 8 minutes. The inward and outward current were inhibited by 5 mmol·L^−1 of Ni^2+ treatment, and the experiment result in two current-voltage curves in the absence or presence of Ni^2+. The Ni^2+ sensitive current, also called electrophysiological Na^+/Ca^2+ exchange current (INa·Ca), was the minus result of two current-voltage curves. The reverse mode potential of INa—Ca was about −20 mV
# Male guinea pigs weighting 250˜280 g provided by the Animal Center of the Chinese Academy of Medical Sciences were hammered and sacrificed. The chest was opened and the heart was removed quickly. Fatty tissue and pericardium were removed in a Ca^2+-free solution at 4° C., and heart was sequentially mounted on a Langendorff apparatus. First, the heart was perfused conversely via the aorta for 6 min with Ca^2+-free solution in order to wash out residual blood, then the heart expands and the color of it turns to pink. Then the heart was perfused with Ca^2+-free solution containing 0.1 mg/ml of pronase E, 0.5 mg/ml defatted bovine serum albumin (BSA) and 150 μM Ca^2+ for 2˜3 min, until the heart expanded and became soft. The atrium was removed, and the digested heart was minced with scissors, stirred in a beaker at 37° C. for 5˜10 min. The supernatant was diluted with Ca^2+-free solution containing 0.5 mg/ml BSA and 1.8 mM Ca^2+. The supernatant was placed at room temperature (20˜24° C.) for 1 hr and then subjected to the experiment. During the whole perfusion period, pressure was kept at 70 cmH2O and the temperature of solution was kept at 37° C. with continuously gassed with 95% O2 and 5% CO2.
# Rod-shaped cells with clear striations and intact membrane were used. […]
# [2] = tested on: isolated rat hearts subjected to ischemia-reperfusion (I/R); experiment: Isolated heart subjected to ischemia/reperfusion injury (arrhythmia)
# Protocol: Based on the pre-electrophysiological cell model screening, we have compared the inhibition ratios of the outward current by reverse-transportation of Na^+/Ca^2+ exchange, and further in vitro tests on isolated rat hearts subjected to ischemia-reperfusion (I/R) were conducted. Prolongation of ventricular arrhythmic, incidence rate of ventricular extrasystole, ventricular tachycardia/ventricular fibrillation (VT/VF) were recorded to evaluate the protective actions of drugs on myocardial injury.
# On the basis of above screening results obtained from electrophysiological studies, and the result from comparative study on the research of the inhibitory effect of compounds on reverse mode Na^+/Ca^2+ exchange process, 7 effective compounds were subjected to in vitro study. Among which, IMM-313, IMM-004 and IMM-132 have structures containing chlorine; IMM-127, IMM-128 and IMM-129 have structures containing fluorine; and IMM-065 has a structure containing OH. The experiment performed in the isolated heart subjected to ischemia/reprefusion insult. Prolongation of ventricular arrhythmic, incidence of ventricular extrasystole, ventricular tachycardia/ventricular fibrillation (VT/VF) were recorded in order to evaluate the protective actions of drugs on myocardial injury.
# [3] = Example 1 table, myocardial cell
# [4] = screening of 22 candidate compounds
# [5] = 10^−6 M, isolated heart ischemia/reperfusion
smiles,measurement,setting,value
"O=c1c2ccc(Cl)cc2[se]n1-c1ccncc1 [IMM-313, 6-chloro-2-(4-pyridyl)-1,2-benz-isoselenazol-3(2H)-one]",mutagenic effect (Ames test),TA97; TA98; TA100; TA102,No evidence for a mutagenic effect
same,TA97 +S9,TA97; 0.5 μg/dish,64.67 ± 8.65
same,TA97 −S9,TA97; 0.5 μg/dish,47.33 ± 6.13
same,TA97 +S9,TA97; 5 μg/dish,70.33 ± 4.11
same,TA97 −S9,TA97; 5 μg/dish,38.33 ± 13.09
same,TA97 +S9,TA97; 50 μg/dish,60.00 ± 7.12
same,TA97 −S9,TA97; 50 μg/dish,0
same,TA97 +S9,TA97; 500 μg/dish,0
same,TA97 −S9,TA97; 500 μg/dish,33.33 ± 13.59
same,TA98 +S9,TA98; 0.5 μg/dish,49.33 ± 3.86
same,TA98 −S9,TA98; 0.5 μg/dish,100.50 ± 3.50
same,TA98 +S9,TA98; 5 μg/dish,50.33 ± 5.79
same,TA98 −S9,TA98; 5 μg/dish,86.50 ± 5.50
same,TA98 +S9,TA98; 50 μg/dish,47.33 ± 1.25
same,TA98 −S9,TA98; 50 μg/dish,0
same,TA98 +S9,TA98; 500 μg/dish,0
same,TA98 −S9,TA98; 500 μg/dish,87.67 ± 5.25
same,"incidence and duration of VT, VF, VE / ventricular arrhythmic","[1]; 3 mg/Kg intravenous (femoral vein), rats",no significant effect
same,rats with heart rate irreversibly reduced within 5 min (died at last),"[1]; 3 mg/Kg intravenous, before ligation, 7/17 rats",41.2%
same,TA102 +S9,TA102; 0.5 μg/dish,250.00 ± 10.00
same,TA102 −S9,TA102; 0.5 μg/dish,215.33 ± 13.91
same,TA102 +S9,TA102; 5 μg/dish,220.00 ± 28.00
same,TA102 −S9,TA102; 5 μg/dish,211.33 ± 18.35
same,TA102 +S9,TA102; 50 μg/dish,265.33 ± 15.43
same,TA102 −S9,TA102; 50 μg/dish,0
same,TA102 +S9,TA102; 500 μg/dish,0
same,TA102 −S9,TA102; 500 μg/dish,177.67 ± 23.33
same,TA100 +S9,TA100; 0.5 μg/dish,99.33 ± 2.49
same,TA100 −S9,TA100; 0.5 μg/dish,68.67 ± 17.33
same,TA100 +S9,TA100; 5 μg/dish,111.33 ± 7.71
same,TA100 −S9,TA100; 5 μg/dish,45.67 ± 6.65
same,TA100 +S9,TA100; 50 μg/dish,106.00 ± 7.48
same,TA100 −S9,TA100; 50 μg/dish,0
same,TA100 +S9,TA100; 500 μg/dish,0
same,TA100 −S9,TA100; 500 μg/dish,16.5 ± 0.5
same,Inhibitory rate of inward INa—Ca (%),Na^+/Ca^2+ exchanger; [3],28%
same,Inhibitory rate of outward INa—Ca (%),Na^+/Ca^2+ exchanger; [3],50%
same,Inhibitory rate of inward INa—Ca (%),Na^+/Ca^2+ exchanger; [4],28%
same,Inhibitory rate of outward INa—Ca (%),Na^+/Ca^2+ exchanger; [4],50* %
same,protective effects on myocardial insults,"[2]; 10^−6M, isolated heart",significant protective effects
same,"AAT: arrhythmic occurrence time, Time",[2]; [5],1.67 ± 0.70 min
same,VF (ventricular fibrillation) Incidence rate (%),[2]; [5],30* %
same,VPS (ventricular premature beats) Incidence rate (%),[2]; [5],20* %
same,VT (ventricular tachycardia) Incidence rate (%),[2]; [5],30%
